According to PubChem BioAssay AID1417 (Emory University Molecular Libraries Screening Center, 2008):

molecular target: Induced myeloid leukemia cell differentiation protein Mcl-1 (Homo sapiens) (UniProt Q07820); test: Mcl-1/Noxa binding inhibitor potency, dose response, biochemical, TR-FRET (AID 1417); settings: Mcl-1/Noxa peptide interaction, cell-free TR-FRET (terbium/rhodamine), 2 h; measured here: absolute IC50
Sequence (Q07820 whole entry, looked up): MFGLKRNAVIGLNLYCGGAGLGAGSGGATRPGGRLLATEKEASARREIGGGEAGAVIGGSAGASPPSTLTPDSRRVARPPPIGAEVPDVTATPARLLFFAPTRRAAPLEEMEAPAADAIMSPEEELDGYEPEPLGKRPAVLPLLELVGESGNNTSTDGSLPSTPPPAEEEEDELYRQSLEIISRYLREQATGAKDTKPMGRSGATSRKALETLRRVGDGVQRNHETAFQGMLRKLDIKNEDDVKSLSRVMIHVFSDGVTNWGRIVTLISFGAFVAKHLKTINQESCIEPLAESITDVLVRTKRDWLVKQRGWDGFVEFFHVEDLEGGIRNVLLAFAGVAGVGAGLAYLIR

SMILES	IC50
O=C(O)C[C@@H]1C(=O)O[C@@H]2C(COC(=O)c3cc(O)c(O)c(O)c3)O[C@@H](OC(=O)c3cc(O)c(O)c(O)c3)[C@@H](OC(=O)c3cc(O)c(O)c4c3[C@H]1[C@H](O)C(=O)O4)[C@H]2OC(=O)c1cc(O)c(O)c(O)c1 (stereo partly drawn)	< 0.4 µM
O=Cc1[nH]c2ccccc2c1N(C(=O)CCl)c1ccc([N+](=O)[O-])cc1	> 54 µM
CC(=O)c1ccc(NC(=O)CSc2nnc(-c3ccco3)c(-c3ccco3)n2)cc1	5.96 µM
CCOc1ccc(NC(=O)N(CCN2CCOCC2)Cc2ccc3c(c2)CCCN3CC)cc1	0.953 µM
CCCCn1c(-c2ccc(Cl)cc2)nc2c(=O)n(C)c(=O)[nH]c21	> 54 µM
NC(=S)n1[nH]c(-c2ccc([N+](=O)[O-])cc2)c(N=Nc2cccc([N+](=O)[O-])c2)c1=O	1.65 µM
COc1ccccc1Nc1nc(-c2sc(NC(=O)c3ccc([N+](=O)[O-])cc3)nc2C)cs1	< 0.4 µM
COc1ccc(C(CC(=O)N2CCCC2)c2c(OC)cc(OC)c3c(-c4ccccc4)cc(=O)oc23)cc1 (stereo not drawn)	3.89 µM
COc1ccc(N2CCC(CNC(=O)Nc3ccccc3)C2)cc1 (stereo not drawn)	< 0.4 µM
O=c1c2ccccc2sn1-c1cc(S(=O)(=O)N2CCOCC2)ccc1N1CCOCC1	< 0.4 µM
O=C(O)COc1ccccc1C(Nc1ccccn1)c1cc(Cl)c2cccnc2c1O (stereo not drawn)	< 0.4 µM
CN(C)c1ccc(/C=c2\sc3nc(-c4ccccc4)nn3c2=O)cc1	8.8 µM
c1ccc(-c2ccc(-c3n(-c4ccccn4)c4ccccc4[n+]3-c3ccccn3)cc2)cc1	34.6 µM
Cc1nnc(NC(=O)c2sc3nc(-c4cccs4)cc(C(F)(F)F)c3c2N)s1	1.6 µM
N=C1S/C(=C\c2ccco2)C(=O)N1c1ccc2c(c1)OCO2	8.85 µM
COc1cc(C(=O)Nc2ccc3c(c2)C(=O)c2ccccc2C3=O)cc(OC)c1OC	3.97 µM
Cc1c(Cl)cnc(NC(=O)COC(=O)c2ccc([N+](=O)[O-])s2)c1Cl	7.01 µM
O=[N+]([O-])c1cc([N+](=O)[O-])c2cccnc2c1Oc1ccccc1O	1.27 µM
Cc1ccc(-c2cc(C(=O)NCCCn3ccnc3)c3cc(Br)ccc3n2)o1	> 54 µM
CCC1(C(=O)OC)CCc2c(cc(OC)c3ccccc23)C1=O (stereo not drawn)	48.1 µM
COc1ccccc1C1=Nc2cccc3cccc(c23)N1	> 54 µM
Cc1cc(N=Cc2c(O)ccc3cc(Br)ccc23)no1	53.5 µM
Cc1ccc(/C=c2\sc3nc(-c4ccccc4Br)nn3c2=O)o1	4.37 µM
COc1cc2c(-c3ccc(O)cc3)nc3c(c(C)nn3-c3ccccc3)c2cc1OC	1.19 µM
Cc1ccc(NC(=O)CN2C(=O)N/C(=C/c3cc(C)n(-c4ccc(C(=O)O)cc4)c3C)C2=O)cc1	5.14 µM
N=C1/C(=C/c2ccc(-c3cccc(C(=O)O)c3)o2)C(=O)N=C2SC=C(c3ccccc3)N12	< 0.4 µM

SMILES	IC50
CCN(CC)c1ccc(NC(=O)/C=C\c2ccccc2Cl)cc1	< 0.4 µM
O=C1NC(=S)NC(=O)C1=Cc1cccn1-c1ccc(O)cc1	3.36 µM
c1coc(-c2nc3ccccc3nc2-c2ccco2)c1	5.17 µM
COc1ccccc1C1C2=C(N=c3s/c(=C/c4cccc(OCC(=O)O)c4)c(=O)n31)c1ccccc1CC2 (stereo not drawn)	2.15 µM
C/C(=N\NC(=O)c1cccc(N/N=C(\C)c2ccco2)c1)c1ccco1	2.88 µM
O=C(O)c1cc(N/N=C/c2ccc(N3CCOCC3)s2)ccc1Cl	1.08 µM
COc1ccc(N=C2S/C(=C\c3ccc(OC(C)C(=O)O)c(OC)c3)C(=O)N2CCc2c[nH]c3ccccc23)cc1 (stereo not drawn)	7.31 µM
O=C(O)C1Nc2c(O)cc(Cl)c([N+](=O)[O-])c2C2C=CCC12 (stereo not drawn)	< 0.4 µM
O=c1/c(=C/c2ccc(O)c([N+](=O)[O-])c2)sc2nc3ccccc3n12	4.26 µM
CC(C)(C)C1CCc2c(C(=O)NNC(=O)CCC(=O)O)csc2C1 (stereo not drawn)	> 54 µM
Cc1cc(SCC(=O)N/N=C/c2ccc(O)c(O)c2O)c(C)cc1Br	< 0.4 µM
CCOC(=O)C1=C(C)NC2=C(C(=O)CC(C)(C)C2)C1c1ccc2c(c1)CCCN2C (stereo not drawn)	> 54 µM
C=CCOC(=O)/C(=C\c1ccccc1)NC(=O)c1ccc(C)cc1	> 54 µM
O=C1C(=Cc2ccc(Br)o2)C(=O)c2ccccc21	< 0.4 µM
O=C(Nc1ccc([N+](=O)[O-])cc1)Nc1nc(-c2ccc(Cl)s2)cs1	1.82 µM
COc1ccc(NC(=O)CSc2ncnc3c2sc2ccccc23)c(OC)c1	> 54 µM
Cc1sc(NC(=O)c2sc3nc4c(C)cccc4cc3c2N)c(C#N)c1C	< 0.4 µM
Oc1cccc2cc3cccc(O)c3c(O)c12	1.96 µM
Cc1ccc(NC(=O)c2cc(N3C(=O)C=CC3=O)ccc2Cl)cc1C	< 0.4 µM
O=C(O)CCC(=O)NCCC1=c2ccccc2=N/C1=C\c1c(O)n(Cc2ccc(F)cc2)c(=S)[nH]c1=O	< 0.4 µM
Cc1ccc(/C=C/C(=O)Nc2ccc(N(C)C)cc2)o1	< 0.4 µM
Nc1scc2c(C(=O)N/N=C/c3ccc(Cl)cc3)nn(-c3ccccc3)c(=O)c12	1.32 µM
COc1cc(/C=N/NC(=O)c2cc(-c3ccco3)nc3ccccc23)cc(OC)c1O	< 0.4 µM
CN(C)S(=O)(=O)c1cccc(-c2nn(-c3ccccc3)cc2/C=C2\SC(=S)NC2=O)c1	0.48 µM
Cc1cc(C)c(S(=O)(=O)Nc2cc(SCC(=O)O)c(O)c3ccccc23)cc1C	< 0.4 µM
CCNc1ccc(Br)cc(C(=O)/C=C/c2ccc3c(c2)OCO3)c1=O	0.499 µM

SMILES	IC50
Cc1ccc(-c2cc(C(=O)N3CCN(c4ncccn4)CC3)c3cc(Br)ccc3n2)o1	3.78 µM
CC(C)(O)C#Cc1ccc(CN2CCN(C3CCCCC3)C(CCO)C2)cc1 (stereo not drawn)	> 54 µM
Nc1ccc(Cc2ccc(N)c(O)c2)cc1O	< 0.4 µM
O=[N+]([O-])c1ccc(-c2cn(-c3ccc(Cl)cc3)c(=S)[nH]2)cc1	7.17 µM
COc1ccc2nc(-c3ccco3)c(-c3ccco3)nc2c1	2.25 µM
Cc1cc(NC(=O)Cc2cccs2)no1	< 0.4 µM
Cc1ccc(-c2ccc(/C=C3/NC(=O)NC3=O)o2)cc1[N+](=O)[O-]	6.44 µM
O=[N+]([O-])c1ccc(O)c(/C=N/Nc2ccc(Cl)nn2)c1	16.7 µM
CC1=NNC(=O)C1CC(=O)N/N=C(\C)c1ccco1 (stereo not drawn)	> 54 µM
O=C1Nc2ccccc2/C1=N/N=C/c1ccc(-c2ccc([N+](=O)[O-])cc2)o1	< 0.4 µM
O=C(Nc1nccs1)c1cc(-c2ccco2)nc2ccccc12	1.4 µM
CCC1CCCCN1S(=O)(=O)c1ccc(S(=O)(=O)N(Cc2ccccn2)CC2CCCO2)cc1 (stereo not drawn)	> 54 µM
O=C(N/N=C/c1ccc(-c2ccccc2C(=O)O)o1)c1cccs1	7.88 µM
CSc1nnc(-c2ccco2)c(-c2ccco2)n1	13.2 µM
COc1cccc2c(=O)c3cccc(N)c3[nH]c12	> 54 µM
Cc1cccc(OCCCC(=O)Nc2ccc(N(C)C)cc2)c1	1.8 µM
O=C(O)c1cccc(Cn2c(Cl)c(/C=N/NC(=O)c3cc4ccccc4cc3O)sc2=O)c1	3.35 µM
CN1C(=O)/C(=C2\SC(=S)N(CCCCCC(=O)O)C2=O)c2ccccc21	2.85 µM
Cc1ccc(NC(=O)CN2C(=O)S/C(=C\c3cccn3-c3cccc(C(=O)O)c3)C2=O)c(C)c1	13.1 µM
CN(C)c1ccc(Nc2c3c4c(cccc4n(C)c2=O)C(=O)c2ccccc2-3)cc1	< 0.4 µM
CS(=O)(=O)c1ccc2c(c1)SC1=NC(=O)/C(=C/c3ccco3)C(=N)N12	2.19 µM
COc1ccc(C(=O)C[n+]2ccc(-c3nnc4n3CCCCC4)cc2)cc1	23.1 µM
Cc1ccc(-n2nc(C)cc2NC(=O)COc2cc(C)cc3oc(=O)c4c(c23)CCC4)cc1	> 54 µM
C=C(C)C(=O)Nc1cccc(C2=NOC3(C2)C[C@@H](C(N)=O)N(C(=O)/C(C)=C/C)C3)c1 (stereo partly drawn)	> 54 µM
O=C1/C(=C\c2ccc(O)cc2)SC(=S)N1/N=C/c1ccc(O)cc1	2.99 µM
O=[N+]([O-])c1cc(/C=N/Nc2nc3ccccc3[nH]2)c(O)cc1O	13.3 µM

SMILES	IC50
O=C(CN1C(=O)/C(=C2\SC(=S)N(C3CCS(=O)(=O)C3)C2=O)c2ccccc21)Nc1ccc(F)cc1 (stereo not drawn)	2.07 µM
N#CC1=C(N)N(c2ccc(F)cc2)C2=C(C1c1ccc(O)cc1)S(=O)(=O)CC2 (stereo not drawn)	3.4 µM
O=c1oc2c(O)c(O)cc3c(=O)oc4c(O)c(O)cc1c4c23	< 0.4 µM
O=C1NC(=O)/C(=C\c2ccc(O)cc2O)S1	< 0.4 µM
O=C1NC(=O)N(c2ccccc2)C(=O)/C1=C\c1ccc2c3c(cccc13)CC2	8.21 µM
COc1ccc(C(=O)Nc2ccc(N3CCCC3)cc2)cc1	2.65 µM
O=[N+]([O-])c1cccc(N/N=C/c2cc([N+](=O)[O-])ccc2O)c1	0.428 µM
COc1ccc(/C=N/NC(=O)c2cc(O)c(O)c(O)c2)cc1Cn1cc([N+](=O)[O-])cn1	< 0.4 µM
CCC(=O)Oc1ccc2c(=O)c(-c3ccc4ccccc4n3)c(CC)oc2c1C	> 54 µM
O=C1CCCC2=C1C(c1ccco1)Nc1ccc3ccccc3c12 (stereo not drawn)	2.22 µM
O=C(O)c1cc(-c2ccc(/C=C3\NC(=O)N(c4ccccc4)C3=O)o2)ccc1Cl	> 54 µM
COC(=O)[C@@]1(Cc2ccccc2)[C@H]2c3cc(C(=O)N4CCCC4)n(CCSCCO)c3C[C@H]2CN1C(=O)c1ccccc1	> 54 µM
O=C1N=c2ccc(Br)cc2=C1c1sc(=S)n(NS(=O)(=O)c2ccccc2)c1O	> 54 µM
CCN1c2ccccc2N(C)C1(C)c1ccccc1 (stereo not drawn)	5.11 µM
CCCCCn1c(N)c(-c2nc3ccccc3o2)c2c([N+](=O)[O-])nn(CC)c(=O)c21	2.8 µM
COc1cc(/C=C(/NC(C)=O)C(=O)O)cc(Cl)c1OCc1ccc(Br)cc1	> 54 µM
C=CCn1c(C)cc(C(=O)Cn2ncc(Cl)c(Cl)c2=O)c1C	3.07 µM
CCCC1=NN2C(=N)/C(=C\c3ccc(SCc4ccco4)o3)C(=O)N=C2S1	< 0.4 µM
Cc1ccc(Cn2c(=N)c(C(=O)NCc3ccco3)cc3c(=O)n4ccccc4nc32)cc1	3.6 µM
NC(=S)n1[nH]c(-c2ccc([N+](=O)[O-])cc2)c(N=Nc2ccc(O)cc2)c1=O	3.13 µM
Cc1cccc(N=C2NC(=O)/C(=C/C=C/c3ccco3)S2)c1C	4.15 µM
COc1cc(OC)c2c(O)c3c(c(-c4c5c(c(O)c6c(OC)cc(OC)cc46)CO[C@@H](C)[C@H]5O)c2c1)[C@H](O)[C@H](C)OC3	> 54 µM
CCOc1cc(CNc2ccc(N3CCCC3)cc2)cc(Cl)c1OC	> 54 µM
COc1ccc(C(=O)CSc2nnc(-c3ccco3)c(-c3ccco3)n2)cc1	7.95 µM
c1ccc(Nc2cccc(Nc3ccccc3)c2)cc1	> 54 µM
